# Measured values published in patent publication US20240360178A1, “MACROCYCLIC IMMUNOMODULATORS” (Bristol-Myers Squibb Company, priority 2021, published 2024).
# Starred links: 1 amine or outer side, 2 acyl side, 3 side chain; linkers in the order of their positions; H or OH if unused. Positions of bridges follow the written chain, without caps; N, C: chain ends. Non-standard residues stand in square brackets, D forms with d. Residues, ends and D or L forms follow the SMILES beside them. ξ: configuration not given here. *: point of attachment. Phe(3,4,5-F3) = N[C@@H](Cc1cc(F)c(F)c(F)c1)C(=O)O; Phe(4-COOH) = N[C@@H](Cc1ccc(C(=O)O)cc1)C(=O)O; Bip = N[C@@H](Cc1ccc(-c2ccccc2)cc1)C(=O)O; dPro(4S-NH2) = N[C@@H]1CN[C@@H](C(=O)O)C1; Phe(3-CN) = N#Cc1cccc(C[C@H](N)C(=O)O)c1; Phe(3-OMe) = COc1cccc(C[C@H](N)C(=O)O)c1; X1 = O=C([C@H](Cc1ccn[nH]1)N[*:1])[*:2]; Phe(3-Me) = Cc1cccc(C[C@H](N)C(=O)O)c1; 1Nal = N[C@@H](Cc1cccc2ccccc12)C(=O)O; Val(3-OH) = CC(C)(O)[C@H](N)C(=O)O; NMeF = CN[C@@H](Cc1ccccc1)C(=O)O; 4Pal = N[C@@H](Cc1ccncc1)C(=O)O; Cha = N[C@@H](CC1CCCCC1)C(=O)O; Cit = NC(=O)NCCC[C@H](N)C(=O)O; dPip = O=C(O)[C@H]1CCCCN1; Carboxymethyl = O=C(O)C*; NMeA = CN[C@@H](C)C(=O)O; Orn = NCCC[C@H](N)C(=O)O; Dab = NCC[C@H](N)C(=O)O; Dap = NC[C@H](N)C(=O)O; ξV = CC(C)C(N)C(=O)O; Sar = CNCC(=O)O
# Target: T1, human PD-1 (Jurkat-PD-1 cells) / PE-labeled human PD-L1-Ig (Homo sapiens, UniProt Q15116)
# T1 construct: expressed in transfected cells; host or cells: Jurkat cell line over-expressing human PD-1
# T1 sequence (Q15116 25-288): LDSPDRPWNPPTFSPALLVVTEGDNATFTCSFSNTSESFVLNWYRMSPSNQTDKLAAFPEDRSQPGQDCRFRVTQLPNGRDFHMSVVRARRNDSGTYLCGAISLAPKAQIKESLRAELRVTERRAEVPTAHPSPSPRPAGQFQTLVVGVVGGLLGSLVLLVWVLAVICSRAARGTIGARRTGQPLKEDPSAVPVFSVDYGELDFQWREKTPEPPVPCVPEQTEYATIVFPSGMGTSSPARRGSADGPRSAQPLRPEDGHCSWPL
# Experiment: Jurkat-PD-1 Cell Binding High-Content Screening Assay (CBA); Jurkat hPD1-PDL1 assay
# Settings: Jurkat cell line over-expressing human PD-1; PE-labeled PD-L1-Ig 20 nM final; compound incubated 2 hours at 37° C.; read-out: Jurkat HPD1-PDL1 IC50
# Procedure, shortened: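 Jurkat cells overexpressing human PD-1 (8×10^3 per well, DMEM with 10% FCS) were preincubated with compound for 2 hours at 37° C. PE-labeled human PD-L1-Ig was then added at 20 nM final. Binding was quantified by high-content imaging.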
row,IC50 [nM],SMILES
1,90,CC(C)[C@@H]1NC(=O)[C@H](Cc2c[nH]c3ccccc23)NC(=O)[C@H](CC(=O)O)NC(=O)[C@H](Cc2ccncc2)NC(=O)[C@H](CN)NC(=O)CSC[C@@H](C(=O)N[C@@H](C)C(N)=O)NC(=O)[C@H]([C@@H](C)O)NC(=O)[C@H](C(C)C)NC(=O)[C@H](CC2CCCCC2)NC(=O)[C@H](CCN)NC(=O)[C@H](Cc2ccccc2)N(C)C(=O)[C@H](CCCN)NC(=O)[C@H](CCC(=O)O)NC(=O)[C@H](Cc2ccc(-c3ccccc3)cc2)NC1=O [Example 1439] ({CH2CO}-[Dap][4Pal]DWV[Bip]E[Orn][NMeF][Dab][Cha]VTCA-NH2; thioether N-14)
2,360,CC(C)C[C@@H]1NC(=O)[C@H](CCCNC(=N)N)NC(=O)[C@H](Cc2ccccc2)N(C)C(=O)[C@H](C)N(C)C(=O)[C@H](CCCNC(=N)N)NC(=O)[C@H](Cc2ccc(-c3ccccc3)cc2)NC(=O)[C@H](C(C)C)NC(=O)[C@H](Cc2c[nH]c3ccccc23)NC(=O)[C@H](CC(=O)O)NC(=O)[C@H](Cc2ccc(O)cc2)NC(=O)[C@H](CC2CCCCC2)NC(=O)CSC[C@@H](C(=O)NCC(N)=O)NC(=O)[C@H](CO)NC(=O)[C@H](C(C)C)NC1=O [Example 1248] ({CH2CO}-[Cha]YDWV[Bip]R[NMeA][NMeF]RLVSCG-NH2; thioether N-14)
3,170,CC(C)C[C@@H]1NC(=O)[C@H](CCCNC(=N)N)NC(=O)[C@H](Cc2ccccc2)N(C)C(=O)[C@H](C)N(C)C(=O)[C@H](CCCNC(=N)N)NC(=O)[C@H](Cc2ccc(-c3ccccc3)cc2)NC(=O)[C@H](C(C)C)NC(=O)[C@H](Cc2c[nH]c3ccccc23)NC(=O)[C@H](CC(=O)O)NC(=O)[C@H](Cc2ccccc2)NC(=O)[C@H](Cc2ccccc2)NC(=O)CSC[C@@H](C(=O)NCC(N)=O)NC(=O)[C@H](CO)NC(=O)[C@H](C(C)C)NC1=O [Example 1238] ({CH2CO}-FFDWV[Bip]R[NMeA][NMeF]RLVSCG-NH2; thioether N-14)
4,90,CC(C)C[C@@H]1NC(=O)[C@H](Cc2c[nH]c3ccccc23)NC(=O)[C@H](CC(=O)O)NC(=O)[C@H](Cc2ccc(O)cc2)NC(=O)[C@H](Cc2ccccc2)NC(=O)CSC[C@@H](C(=O)NCC(N)=O)NC(=O)[C@H](CO)NC(=O)[C@H](C(C)C)NC(=O)[C@H](CC(C)C)NC(=O)[C@H](CC(N)=O)NC(=O)[C@H]2CCCN2C(=O)[C@H](CCN)NC(=O)[C@H](C(C)C)NC(=O)[C@H](Cc2ccc(-c3ccccc3)cc2)NC1=O [Example 1413] ({CH2CO}-FYDWL[Bip]V[Dab][dP]NLVSCG-NH2; thioether N-14)
5,80,COc1cccc(C[C@@H]2NC(=O)[C@H](CC(=O)O)NC(=O)[C@H](Cc3ccc(O)cc3)NC(=O)[C@H](CC(N)=O)NC(=O)CSC[C@@H](C(=O)N[C@@H](C)C(N)=O)NC(=O)[C@H]([C@@H](C)O)NC(=O)[C@H](C(C)C)NC(=O)[C@H](CC(C)C)NC(=O)[C@H](CCN)NC(=O)[C@H](Cc3ccccc3)N(C)C(=O)[C@H](C)N(C)C(=O)[C@H](CCCNC(N)=O)NC(=O)[C@H](Cc3ccc(-c4ccccc4)cc3)NC(=O)[C@H](C(C)C)NC2=O)c1 [Example 1375] ({CH2CO}-NYD[Phe(3-OMe)]V[Bip][Cit][NMeA][NMeF][Dab]LVTCA-NH2; thioether N-14)
6,780,CC(C)C[C@@H]1NC(=O)[C@H](C)NC(=O)[C@H](Cc2ccccc2)N(C)C(=O)[C@H](C)N(C)C(=O)[C@H](CCCNC(=N)N)NC(=O)[C@H](Cc2ccc(-c3ccccc3)cc2)NC(=O)[C@H](C(C)C)NC(=O)[C@H](Cc2c[nH]c3ccccc23)NC(=O)[C@H](CC(=O)O)NC(=O)[C@H](Cc2ccc(O)cc2)NC(=O)[C@H](Cc2ccccc2)NC(=O)CSC[C@@H](C(=O)NCC(N)=O)NC(=O)[C@H](CO)NC(=O)[C@H](C(C)C)NC1=O [Example 1209] ({CH2CO}-FYDWV[Bip]R[NMeA][NMeF]ALVSCG-NH2; thioether N-14)
7,500,CC(C)C[C@@H]1NC(=O)[C@H](Cc2c[nH]c3ccccc23)NC(=O)[C@H](CC(=O)O)NC(=O)[C@H](Cc2ccc(O)cc2)NC(=O)[C@H](Cc2ccccc2)NC(=O)CSC[C@@H](C(=O)N[C@@H](C)C(N)=O)NC(=O)[C@H](CO)NC(=O)[C@H](C(C)C)NC(=O)[C@H](CC(C)C)NC(=O)[C@H](CC(N)=O)NC(=O)[C@H]2C[C@H](N)CN2C(=O)[C@H]2CCCN2C(=O)[C@H](C(C)C)NC(=O)[C@H](Cc2ccc(-c3ccccc3)cc2)NC1=O [Example 1175] ({CH2CO}-FYDWL[Bip]V[dP][dPro(4S-NH2)]NLVSCA-NH2; thioether N-14)
8,400,CC(C)C[C@@H]1NC(=O)[C@H](Cc2cccc3ccccc23)NC(=O)[C@H](CC(=O)O)NC(=O)[C@H](Cc2ccc(O)cc2)NC(=O)[C@H](Cc2ccccc2)NC(=O)CSC[C@@H](C(=O)N[C@@H](C)C(N)=O)NC(=O)[C@H](CO)NC(=O)[C@H](C(C)C)NC(=O)[C@H](CC(C)C)NC(=O)[C@H](CC(N)=O)NC(=O)CN(C)C(=O)[C@H](C)N(C)C(=O)[C@H](C(C)C)NC(=O)[C@H](Cc2ccc(-c3ccccc3)cc2)NC1=O [Example 1116] ({CH2CO}-FYD[1Nal]L[Bip]V[NMeA][Sar]NLVSCA-NH2; thioether N-14)
9,310,"CC(C)C[C@@H]1NC(=O)[C@H](Cc2c[nH]c3ccccc23)NC(=O)[C@H](CC(=O)O)NC(=O)[C@H](Cc2ccc(O)cc2)NC(=O)[C@H](Cc2cc(F)c(F)c(F)c2)NC(=O)CSC[C@@H](C(=O)NCC(N)=O)NC(=O)[C@H](CO)NC(=O)[C@H](C(C)C)NC(=O)[C@H](CC(C)C)NC(=O)[C@H](CC(N)=O)NC(=O)CN(C)C(=O)[C@H](C)N(C)C(=O)[C@H](C(C)C)NC(=O)[C@H](Cc2ccc(-c3ccccc3)cc2)NC1=O [Example 1098] ({CH2CO}-[Phe(3,4,5-F3)]YDWL[Bip]V[NMeA][Sar]NLVSCG-NH2; thioether N-14)"
10,20,COc1cccc(C[C@@H]2NC(=O)[C@H](CC(=O)O)NC(=O)[C@H](Cc3cccc(C#N)c3)NC(=O)[C@H](Cc3ccncc3)NC(=O)CSC[C@@H](C(=O)N[C@@H](C)C(N)=O)NC(=O)[C@H](CO)NC(=O)[C@H](C(C)C)NC(=O)[C@H](CC(C)C)NC(=O)[C@H](CC(N)=O)NC(=O)[C@H]3CCCN3C(=O)[C@H](C)N(C)C(=O)[C@H](C(C)C)NC(=O)[C@H](Cc3ccc(-c4ccccc4)cc3)NC(=O)[C@H](CC(C)C)NC2=O)c1 [Example 1388] ({CH2CO}-[4Pal][Phe(3-CN)]D[Phe(3-OMe)]L[Bip]V[NMeA][dP]NLVSCA-NH2; thioether N-14)
11,280,CC(C)C[C@@H]1NC(=O)[C@H](Cc2c[nH]c3ccccc23)NC(=O)[C@H](CC(=O)O)NC(=O)[C@H](Cc2ccc(O)cc2)NC(=O)[C@H](Cc2ccn[nH]2)NC(=O)CSC[C@@H](C(=O)N[C@@H](C)C(N)=O)NC(=O)[C@H](CO)NC(=O)[C@H](C(C)C)NC(=O)[C@H](CC(C)C)NC(=O)[C@H](CC(N)=O)NC(=O)CN(C)C(=O)[C@H](C)N(C)C(=O)[C@H](C(C)C)NC(=O)[C@H](Cc2ccc(-c3ccccc3)cc2)NC1=O [Example 1094] ({CH2CO}-[X1]YDWL[Bip]V[NMeA][Sar]NLVSCA-NH2; thioether N-14)
12,190,CC(C)C[C@@H]1NC(=O)[C@H](Cc2c[nH]c3ccccc23)NC(=O)[C@H](CC(=O)O)NC(=O)[C@H](Cc2ccc(O)cc2)NC(=O)[C@H](CC(N)=O)NC(=O)CSC[C@@H](C(=O)N[C@@H](C)C(N)=O)NC(=O)[C@H](CO)NC(=O)[C@H](C(C)C)NC(=O)[C@H](CC(C)C)NC(=O)[C@H](CC(N)=O)NC(=O)[C@H]2CCCN2C(=O)[C@H](CCCN)NC(=O)[C@H](C(C)C)NC(=O)[C@H](Cc2ccc(-c3ccccc3)cc2)NC1=O [Example 1425] ({CH2CO}-NYDWL[Bip]V[Orn][dP]NLVSCA-NH2; thioether N-14)
13,140,CC(C)C[C@@H]1NC(=O)[C@H](Cc2c[nH]c3ccccc23)NC(=O)[C@H](CC(=O)O)NC(=O)[C@H](Cc2ccc(O)cc2)NC(=O)[C@H](Cc2ccccc2)NC(=O)CSC[C@@H](C(=O)N[C@@H](C)C(N)=O)NC(=O)[C@H](CO)NC(=O)[C@H](C(C)C)NC(=O)[C@H](CC(C)C)NC(=O)[C@H](CC(N)=O)NC(=O)[C@H](Cc2ccccc2)N(C)C(=O)[C@H](C)N(C)C(=O)[C@H](C(C)C)NC(=O)[C@H](Cc2ccc(-c3ccccc3)cc2)NC1=O [Example 1060] ({CH2CO}-FYDWL[Bip]V[NMeA][NMeF]NLVSCA-NH2; thioether N-14)
14,550,Cc1cccc(C[C@@H]2NC(=O)[C@H](CC(=O)O)NC(=O)[C@H](Cc3ccc(OCC(=O)O)cc3)NC(=O)[C@H](CCCNC(=N)N)NC(=O)CSC[C@@H](C(=O)N[C@@H](CCN)C(N)=O)NC(=O)[C@H](CO)NC(=O)[C@H](C(C)(C)O)NC(=O)[C@H](CC3CCCCC3)NC(=O)[C@H](CCN)NC(=O)[C@H]3CCCCN3C(=O)[C@H]3CCCN3C(=O)[C@H](Cc3ccc(OCC(=O)O)cc3)NC(=O)[C@H](Cc3ccc(-c4ccccc4)cc3)NC(=O)[C@H](Cc3ccc(OCC(=O)O)cc3)NC2=O)c1 [Example 1190] ({CH2CO}-RY(Carboxymethyl)D[Phe(3-Me)]Y(Carboxymethyl)[Bip]Y(Carboxymethyl)[dP][dPip][Dab][Cha][Val(3-OH)]SC[Dab]-NH2; thioether N-14)
15,80,CC(C)C1NC(=O)[C@H](Cc2c[nH]c3ccccc23)NC(=O)[C@H](CC(=O)O)NC(=O)[C@H](Cc2ccc(C(=O)O)cc2)NC(=O)[C@H](Cc2ccc(OCC(=O)O)cc2)NC(=O)CSC[C@@H](C(=O)N[C@@H](C)C(N)=O)NC(=O)[C@H]([C@@H](C)O)NC(=O)[C@H](C(C)C)NC(=O)[C@H](CC2CCCCC2)NC(=O)[C@H](CCN)NC(=O)[C@H](Cc2ccccc2)N(C)C(=O)[C@H](CCCN)NC(=O)[C@H](CCC(=O)O)NC(=O)[C@H](Cc2ccc(-c3ccccc3)cc2)NC1=O (stereo partly drawn) [Example 1443] ({CH2CO}-Y(Carboxymethyl)[Phe(4-COOH)]DW[ξV][Bip]E[Orn][NMeF][Dab][Cha]VTCA-NH2; thioether N-14)
